In patent US20210015883A1, “A NOVEL SYNERGIC HERBAL FORMULATION FOR THE PREVENTION AND TREATMENT OF PRE-DIABETES, DIABETES AND OTHER INSULIN RESISTANCE CASES” (priority 2018, published 2021):

Key:
[1] = test system: high fat diet and Streptozotocin (stz) induced insulin resistance in rats; assay: Oral glucose tolerance test (OGTT) on day 44 in high fat diet + STZ rats; type: in vivo, Albino Wistar rats; settings: Metformin 120 mg/kg p.o., HFD+STZ rats
Procedure: (§1) Evaluation of antidiabetic effect of herbal formulation against high fat diet and Streptozotocin (stz) induced insulin resistance in rats.
(§2) Group III Herbal formulation I as per Example 4 (500 mg): Received HFD throughout the experiment (45 days), STZ (40 mg/kg, i.p) on the 15th day of start of experiment and the Herbal formulation (500 mg/kg, p.o) from the 18th day for the next 28 days.
(§3) Group IV Herbal formulation II as per Example 4 (1000 mg): Received HFD throughout the experiment (45 days), STZ (40 mg/kg, i.p) on the 15th day of start of experiment and the Herbal formulation (1000 mg/kg, p.o) from the 18th day for the next 28 days.
(§4) Group V Reference standard: Receive HFD throughout the experiment (45 days), STZ (40 mg/kg, i.p) on the 15th day of start of experiment and Metformin, (120 mg/kg) from the 18th day for the next 28 days.
(§5) The rats were allocated into dietary regimens by feeding HFD (58% fat, 25% protein and 17% carbohydrate, as a percentage of total kcal) and drinking water ad libitum, respectively, for the initial period of 2 weeks. After 2 weeks of dietary manipulation, the group of rats fed with HFD were injected a single low dose of STZ (40 mg/kg, i.p), while the Normal control rats were given the vehicle citrate buffer (pH 4.4) in a dose volume of 1 mL/kg, i.p. The fasting blood glucose (FBG) were measured 3 days after the STZ injection. The rats with FBG of more than 250 mg/dL were considered diabetic and selected for further pharmacological studies and their dosing with the Herbal formulations commenced and continued for the next 28 days. The rats were allowed to continue to feed on their respective diets until the end of the study. All FBG and insulin levels were determined on different days viz. 18th day (3rd day after STZ injection), 25th, 32nd, 39th and 45th days (24 h after the previous dose) by collecting blood from the tail vein/retro orbital plexus. On the 44th day Oral Glucose Tolerance Test (OGTT) was performed wherein animals of all groups received glucose solution (1.5 g/kg) 30 minutes after the above treatments. Blood glucose and insulin levels were determined at 0, 30, 60, 90, 120 min after glucose administration. Blood glucose levels were measured using a digital glucometer. Insulin was assayed by using a RIA kit.
(§6) √—Correction of the nonlinear values distribution. • A. Animals used: 40 • B. Species/Common name: Albino Wistar rats • C. Age/weight/size: Ten weeks, 150-180 g • D. Gender: Male • E. Number to be used (Year-wise breakups and total figures needed to be given): 40 • F. Number of days each animal will be housed: 3 months • G. Details of injections schedule: • H. Details of withdrawal: • Volumes: 2 mL per animal by retro-orbital plexus for insulin assay and 0.1 mL by tail vein for blood glucose. • I. Sites: Retro-orbital plexus, tail vein

[2] = test system: high fat diet and Streptozotocin (stz) induced insulin resistance in rats; assay: Fasting blood glucose levels in high fat diet + STZ rats; type: in vivo, Albino Wistar rats
Procedure: as §1
(§7) Rats were divided 5 into groups of 8 rats each and treated in the following way:
Group I Normal control group—Received normal chow diet and drinking water daily for 45 days and citrate buffer (1 mL/kg, i.p) on the 15th day of start of experiment.
Group II Toxicant Control: Received HFD throughout the experiment (45 days) and STZ (40 mg/kg, i.p) on the 15th day of start of experiment.
as §2, §3, §4, §5, §6

[3] = test system: high fat diet and Streptozotocin (stz) induced insulin resistance in rats; assay: QUICKI insulin sensitivity index in high fat diet + STZ rats; type: in vivo, Albino Wistar rats; settings: HFD+STZ rats
Procedure: as §5
Quantitative insulin sensitivity check index (QUICKI) is an empirically-derived mathematical transformation of fasting blood glucose and plasma insulin concentrations that provide a consistent and precise ISI with a better positive predictive power. It is simply a variation of HOMA equations, as it transforms the data by taking both the logarithm and the reciprocal of the glucose-insulin product, thus slightly skewing the distribution of fasting insulin values. […] It employs the use of fasting values of insulin and glucose as in HOMA calculations. QUICKI is virtually identical to the simple equation form of the HOMA model in all aspects, except that a log transform of the insulin glucose product is employed to calculate QUICKI. The QUICKI can be determined from fasting plasma glucose (mg/dl) and insulin (μIU/ml) concentrations.
QUICKI values range between 0.45 in healthy individuals (noted as unusually healthy in the original study) and 0.30 in diabetics. Lower values reflect greater resistance with values below 0.339 indicating insulin resistance.

[4] = test system: high fat diet and Streptozotocin (stz) induced insulin resistance in rats; assay: HOMA-IR insulin resistance index in high fat diet + STZ rats; type: in vivo, Albino Wistar rats; settings: HFD+STZ rats
Procedure: as §5, with “After” for “The rats were allocated into dietary regimens by feeding HFD (58% fat, 25% protein and 17% carbohydrate, as a percentage of total kcal) and drinking water ad libitum, respectively, for the initial period of 2 weeks. After”, “The rats with FBG of more than 250 mg/dL were considered diabetic and selected for further pharmacological studies and their dosing with the Herbal formulations commenced and continued for the next 28 days.” left out
Insulin resistance is calculated using the following methods: […]
HOMA is a model of the relationship of glucose and insulin dynamics that predicts fasting steady-state glucose and insulin concentrations for a wide range of possible combinations of insulin resistance and β-cell function. Insulin levels depend on the pancreatic β-cell response to glucose concentrations while, glucose concentrations are regulated by insulin-mediated glucose production via the liver. Thus, deficient β-cell function will echo a diminished response of β-cell to glucose-stimulated insulin secretion. Similarly, insulin resistance is reflected by the diminished suppressive effect of insulin on hepatic glucose production. […] HOMA describes this glucose-insulin homeostasis by means of a set of simple, mathematically-derived nonlinear equations. The approximating equation for insulin resistance has been simplified; it uses a fasting blood sample. It is derived from the use of the insulin-glucose product, divided by a constant.
The product of FPG×FPI is an index of hepatic insulin resistance.
I0—Fasting plasma insulin concentration (mIU/L), G0—Fasting plasma glucose concentration (mg/dL),

[5] = test system: high fat diet and Streptozotocin (stz) induced insulin resistance in rats; assay: Insulin levels in high fat diet + STZ rats (RIA); type: in vivo, Albino Wistar rats; settings: HFD+STZ rats
Procedure: as §1, §7, §2, §3, §4, §5, §6

[6] = test system: high fat diet and Streptozotocin (stz) induced insulin resistance in rats; assay: Matsuda index from OGTT in high fat diet + STZ rats; type: in vivo, Albino Wistar rats; settings: Metformin 120 mg/kg p.o., HFD+STZ rats, value less than 4.3 indicates insulin resistance
Procedure: as §5, with “After” for “The rats were allocated into dietary regimens by feeding HFD (58% fat, 25% protein and 17% carbohydrate, as a percentage of total kcal) and drinking water ad libitum, respectively, for the initial period of 2 weeks. After”, “The rats with FBG of more than 250 mg/dL were considered diabetic and selected for further pharmacological studies and their dosing with the Herbal formulations commenced and continued for the next 28 days.” left out

PPAR gamma = PPAR gamma gene expression by Real Time PCR in differentiated 3T3L1 adipocytes; type: cell-based; settings: SC = Pioglitazone 6 μg/ml, 12th day, control = 1
Procedure: Samples of Herbal formulation were evaluated over a concentration range from 0.5 to 10 μg/ml. Pioglitazone, a known anti-diabetic agent was used as the standard control at a dose of 6 μg/ml; a dose extrapolated from the median therapeutic human dose. The Herbal formulation was dissolved in NAOH (0.1N).
Viability studies were carried out to eliminate cytotoxic concentrations of the samples using MTT assay. Based on the results of the MTT assay, the following concentrations were used for the PPAR Expression studies. Concentration selected was as follows 2.5, 5, 10 μg/ml.
3T3L1 Fibroblasts were grown in DMEM medium, supplemented with 10% FBS, in a humidified atmosphere of 5% CO2 at 370 C. […]
On the 12th day after differentiation, total RNA was extracted with TRIzol reagent according to the manufacturer's instructions from the differentiated adipocytes. The concentration and purity of RNA were determined by measuring the absorbance at 260 nm (A260) and the ratio of the absorbance at 260 nm to the absorbance at 280 nm (A260/A280), respectively. […] SYBR Green chemistry was used to perform the quantitative determination of the relative expression of PPAR gene. The PPAR gene was analyzed using the Rotogene Q; Qiagen real-time polymerase chain reaction machine. […]

[7] = Metformin 120 mg/kg p.o. group, Day 18 (start of treatment)
[8] = Metformin 120 mg/kg p.o., Day 25
[9] = Metformin 120 mg/kg p.o., Day 32
[10] = Metformin 120 mg/kg p.o., Day 39
[11] = Metformin 120 mg/kg p.o., Day 45

With CN(C)C(=N)N=C(N)N [Metformin] the “OGTT Glucose” value ([1]; 0 Min after glucose 1.5 g/kg) was 129.5 ± 1.17 mg/dL, the “OGTT Insulin” value ([1]; 0 Min after glucose 1.5 g/kg) was 13.12 ± 0.97 mIU/L and the “OGTT Glucose” value ([1]; 30 Min after glucose 1.5 g/kg) was 249.50 ± 0.56 mg/dL. For the same compound, the “OGTT Insulin” value ([1]; 30 Min after glucose 1.5 g/kg) was 27.308 ± 1.4 mIU/L, the “OGTT Glucose” value ([1]; 90 Min after glucose 1.5 g/kg) was 185.167 ± 2.08 mg/dL and the “OGTT Insulin” value ([1]; 90 Min after glucose 1.5 g/kg) was 22.72 ± 1.49 mIU/L. The “OGTT Glucose” value ([1]; 120 Min after glucose 1.5 g/kg) was 149.83 ± 2.81 mg/dL, the “OGTT Insulin” value ([1]; 120 Min after glucose 1.5 g/kg) was 14.95 ± 1.035 mIU/L and the “course of BGL over 4 weeks of treatment (in words)” value ([2]; HFD+STZ rats) was “gradual decrease in BGL”. For the same compound, the Blood glucose level ([2]; Metformin 120 mg/kg p.o. group, HFD+STZ rats, Day 1 (before treatment, dosing from day 18)) was 126.87 ± 2.41 mg/dL, the Blood glucose level ([2]; Metformin 120 mg/kg p.o. group, HFD+STZ rats, Day 7 (before treatment)) was 138.63 ± 1.54 mg/dL and the Blood glucose level ([2]; Metformin 120 mg/kg p.o. group, HFD+STZ rats, Day 15 (before treatment)) was 156.37 ± 3.17 mg/dL. For the same compound, the Blood glucose level ([2]; Metformin 120 mg/kg p.o. group, HFD+STZ rats, Day 18 (3rd day after STZ, start of treatment)) was 396.67 ± 43.72 mg/dL, the Blood glucose level ([2]; Metformin 120 mg/kg p.o., HFD+STZ rats, Day 25) was 183.167 ± 13.58 mg/dL and the Blood glucose level ([2]; Metformin 120 mg/kg p.o., HFD+STZ rats, Day 32) was 245.167 ± 28.86 mg/dL. For the same compound, the Blood glucose level ([2]; Metformin 120 mg/kg p.o., HFD+STZ rats, Day 39) was 191.83 ± 25.08 mg/dL, the Blood glucose level ([2]; Metformin 120 mg/kg p.o., HFD+STZ rats, Day 45) was 152.83 ± 8.40 mg/dL and the “BGL at the end of the study compared with the HFD+STZ group (in words)” value ([2]; treatment groups) was “significantly lower”. It also gave a QUICKI [3, 7] of 0.24 ± 0.0057, a QUICKI [3, 8] of 0.276 ± 0.0021 and a QUICKI [3, 9] of 0.26 ± 0.0042. The QUICKI [3, 10] was 0.27 ± 0.0055, the QUICKI [3, 11] was 0.29 ± 0.0030 and the HOMA-IR [4, 7] was 31.7 ± 4.75. For the same compound, the HOMA-IR [4, 8] was 9.91 ± 0.69, the HOMA-IR [4, 9] was 15.8 ± 2.76 and the HOMA-IR [4, 10] was 10.56 ± 1.7. It also gave an HOMA-IR [4, 11] of 5.81 ± 0.39, an Insulin level ([5]; Metformin 120 mg/kg p.o. group, date printed as "—" (first reading)) of 31.56 ± 1.95 mIU/L and an Insulin level [5, 8] of 22.56 ± 2.24 mIU/L. It also gave an Insulin level [5, 9] of 27.84 ± 5.014 mIU/L, an Insulin level [5, 10] of 23.40 ± 3.47 mIU/L and an Insulin level [5, 11] of 15.36 ± 0.58 mIU/L. The “Matsuda Index” value [6] was 12.56.

For CCc1ccc(CCOc2ccc(CC3SC(=O)NC3=O)cc2)nc1 (centres unmarked) [Pioglitazone], the “2^-DDCT (relative PPAR gamma mRNA expression)” value (PPAR gamma) was 2.292.
